Test results reported in patent publication US20230087118A1, “IMIDAZO[1,2-a][sequence] DERIVATIVES AND THEIR USE IN THE TREATMENT OF DISEASE” (priority 2019, published 2023).
Where a name gives a salt, the structure may show the parent alone.

Key:
[1] = target: T1, IRAK4 (Homo sapiens, UniProt Q9NWZ3); experiment: 2-hour 10 μM ATP Biochemical Assay (MesoScale Detection format; IRAK4 phosphorylation of biotin labeled IRAK1 activation loop peptide)
T1 sequence (Q9NWZ3 1-460): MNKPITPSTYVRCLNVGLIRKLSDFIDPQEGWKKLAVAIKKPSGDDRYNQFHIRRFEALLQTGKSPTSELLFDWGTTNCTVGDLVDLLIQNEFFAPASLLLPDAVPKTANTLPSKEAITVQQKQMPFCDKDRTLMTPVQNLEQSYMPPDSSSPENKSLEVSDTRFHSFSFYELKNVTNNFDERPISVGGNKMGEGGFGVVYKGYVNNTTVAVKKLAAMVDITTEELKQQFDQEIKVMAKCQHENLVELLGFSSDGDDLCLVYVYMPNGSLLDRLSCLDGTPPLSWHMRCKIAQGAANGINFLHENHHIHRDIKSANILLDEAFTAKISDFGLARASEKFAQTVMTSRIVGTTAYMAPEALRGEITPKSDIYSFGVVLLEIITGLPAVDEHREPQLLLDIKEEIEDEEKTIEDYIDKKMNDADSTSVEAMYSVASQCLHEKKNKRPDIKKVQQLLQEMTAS
Procedure: Compounds of the invention were assessed for their ability to inhibit IRAK4 activity. The inhibitory properties of the compounds of the invention described herein can be evidenced by testing in any one of the following assays.
The 2-hour 10 μM ATP Biochemical Assay employs a MesoScale Detection (MSD) format. The kinase reaction is based on the IRAK4 phosphorylation of a biotin labeled peptide (IRAK1 activation loop sequence 360-389).
The kinase reaction in 30 μl is carried out in wells of a 384 well polypropylene assay plate, with 0.1 nM IRAK4, 1.6 μM of biotinylated peptide substrate and 10 μM ATP in 50 mM Hepes, pH 7.5, 60 mM NaCl, 5 mM MgCl2, 0.25 mM MnCl2, 2 mM DTT, 0.01% BSA, and 1% DMSO (from compound DMSO stocks), for 2 hour at room temperature. The activity is quenched with 11 μl of 70 mM EDTA, pH 8.
To detect the phosphorylated biotinylated peptide substrate, 30 μl of the quenched reaction mixture is added to equivalent wells of a 384 well streptavidin coated MesoScale plate (Meso Scale Discovery #L21SA-1). After a 1 hour incubation of the plate for 1 hour at room temperature with gentle mixing, the plate wells are washed 3 times with 50 mM Tris, pH 7.5, 150 mM NaCl, 0.02% Tween-20.
A 25 μl volume of 1:500 anti-P-Threonine Rabbit polyclonal Antibody plus 1:500 Goat-anti-Rabbit Sulfo Tag Antibody (Meso Scale Discovery R32AB-1) in 50 mM Tris, pH 7.5, 150 mM NaCl, 0.02% Tween-20 plus 2% BSA is then added to each well. After a 1-hour incubation of the plate for 1 hour at room temperature with gentle mixing, the plate wells are washed, 3 times with 50 mM Tris, pH 7.5, 150 mM NaCl, 0.02% Tween-20. A 40 μl volume of 2× MSD Read Buffer (Meso Scale Discovery R92TC-1) is added to each well, and the plate is read immediately in an MSD Plate Reader (Meso Scale Discovery).

[2] = target: T1, IRAK4; experiment: biochemical
[3] = read-out: IRAK4 Biochemical Assay (10 μM ATP, 2 h) IC50, 0.1 nM IRAK4
[4] = IRAK4 Biochemical Assay (1 mM ATP, 2 h) IC50 (μM), 1 mM ATP, 2 h, 100 pM IRAK4

IC50 ([1]; 0.1 nM IRAK4) [nM] | Structure (SMILES) | further results
741 | COc1cc2nc(C3CCOCC3)cn2cc1C(=O)N[C@@H]1COC[C@H]1F (racemic) [Example 123] | –
794 | COc1cc2nc(C3CCOCC3)cn2cc1C(=O)N[C@@]12CCC[C@@H]1C2 (racemic) [Example 149] | –
412 | COc1cc2nc(C3CCOCC3)cn2cc1C(=O)N[C@@H]1C[C@H]1C1CCC1 (racemic) [Example 154] | –
230 | COc1cc2nc(C3CCOCC3)cn2cc1C(=O)N[C@@H]1CCCC[C@H]1OC (racemic) [Example 155] | –
861 | COc1cc2nc(C3CCOCC3)cn2cc1C(=O)N[C@@H]1CCC[C@H](C2CC2)C1 (relative stereo) [Example 177] | –
32 | COc1cccc(NC(=O)c2cn3cc(CC(C)C#N)nc3cc2OC)n1 (centres unmarked) [Example 12] | –
17 | COc1cccc(NC(=O)c2cn3cc(C(C)(C)CC#N)nc3cc2OC)n1 [Example 13] | –
26 | COc1cccc(NC(=O)c2cn3cc(C4(OC)CC4)nc3cc2OC)n1 [Example 14] | –
31 | COc1cccc(NC(=O)c2cn3cc(CC4COCCO4)nc3cc2OC)n1 (centres unmarked) [Example 15] | –
8 | COc1cccc(NC(=O)c2cn3cc(C4CC45CCOC5)nc3cc2OC)n1 (centres unmarked) [Example 16] | –
2 | COc1cccc(NC(=O)c2cn3cc(C4CCC(OC)C4)nc3cc2OC)n1 (centres unmarked) [Example 17] | –
1 | COc1cccc(NC(=O)c2cn3cc(C4CC5CCC(C4)O5)nc3cc2OC)n1 (centres unmarked) [Example 18] | –
6 | COc1cccc(NC(=O)c2cn3cc(C45CC(C#N)(C4)C5)nc3cc2OC)n1 [Example 19] | –
3 | COc1cccc(NC(=O)c2cn3cc(C45CC(C(F)F)(C4)C5)nc3cc2OC)n1 [Example 20] | –
25 | COc1cccc(NC(=O)c2cn3cc(C4CCOC4)nc3cc2OC)n1 (centres unmarked) [Example 23] | –
57 | COc1cc2nc(C3(OC)CC3)cn2cc1C(=O)Nc1cccc(C(F)(F)F)n1 [Example 34] | –
12 | COc1cc2nc(C3CCOC3)cn2cc1C(=O)Nc1cccc(C(F)(F)F)n1 (centres unmarked) [Example 35] | –
24 | COc1cc2nc(C3CC34CCOC4)cn2cc1C(=O)Nc1cccc(C(F)(F)F)n1 (centres unmarked) [Example 39] | –
31 | COc1cc2nc(CC(C)C#N)cn2cc1C(=O)Nc1cccc(C(F)(F)F)n1 (centres unmarked) [Example 42] | –
37 | COc1cc2nc(C(C)(C)CC#N)cn2cc1C(=O)Nc1cccc(C(F)(F)F)n1 [Example 46] | –
92 | COc1cccc(NC(=O)c2ccc3nc(C4CCOCC4)cn3c2)n1 [Example 47] | –

IC50 ([1]; 0.1 nM IRAK4) [nM] | Structure (SMILES) | further results
350 | O=C(Nc1ccn(C(F)F)n1)c1ccc2nc(C3CCOCC3)cn2c1 [Example 49] | –
– | COc1cccc(NC(=O)c2cn3cc(C[C@H]4CCOC4)nc3cc2OC)n1 [Example 50, (S)-7-methoxy-N-(6-methoxypyridin-2-yl)-2-((tetrahydrofuran-3-yl)methyl)imidazo[1,2-a]pyridine-6-carboxamide] | IC50 [1, 3]: 3 nM
– | COc1cccc(NC(=O)c2cn3cc(C[C@@H]4CCOC4)nc3cc2OC)n1 [Example 51, (R)-7-methoxy-N-(6-methoxypyridin-2-yl)-2-((tetrahydrofuran-3-yl)methyl)imidazo[1,2-a]pyridine-6-carboxamide] | IC50 [1, 3]: 3 nM
8 | COc1cc(C(=O)Nc2cccc(C(F)(F)F)n2)cn2cc(CC3CCOC3)nc12 (centres unmarked) [Example 72] | –
1 | CCOc1cc2nc(C3CCOCC3)cn2cc1C(=O)Nc1cccc(C(F)F)n1 [Example 73] | –
6 | COc1cc(C(=O)Nc2cccc(C(F)(F)F)n2)cn2cc(C3CCOCC3)nc12 [Example 75] | –
1 | CCOc1cc2nc(CCCOC)cn2cc1C(=O)Nc1cccc(C(F)F)n1 [Example 85] | –
79 | COc1cc(C(=O)Nc2cccc(C(F)F)n2)cn2cc(C3(OC)CC3)nc12 [Example 91, N-(6-(difluoromethyl)pyridin-2-yl)-8-methoxy-2-(1-methoxycyclopropyl)imidazo[1,2-a]pyridine-6-carboxamide] | –
– | CC(C)Oc1cc2nc(C34CCC(C)(CC3)OC4)cn2cc1C(=O)Nc1cccn(C)c1=O [Example 574, 7-Isopropoxy-N-(1-methyl-2-oxo-1,2-dihydropyridin-3-yl)-2-(1-methyl-2-oxabicyclo[2.2.2]octan-4-yl)imidazo[1,2-a]pyridine-6-carboxamide] | IC50 [2, 4]: 0.0002 µM
– | Cc1cnc2c(NC(=O)c3cn4cc(C56COC(C)(C5)C6)nc4nc3OC3CCC3)cnn2c1 [Example 575, 7-Cyclobutoxy-2-(1-methyl-2-oxabicyclo[2.1.1]hexan-4-yl)-N-(6-methylpyrazolo[1,5-a]pyrimidin-3-yl)imidazo[1,2-a]pyrimidine-6-carboxamide] | IC50 [2]: 0.0007 µM
– | Cn1ccc(NC(=O)c2cn3cc(C45CCC(C)(C4)OC5)nc3cc2OC2CCCC2)n1 (centres unmarked) [Example 632, 7-(Cyclopentyloxy)-N-(1-methyl-1H-pyrazol-3-yl)-2-(1-methyl-2-oxabicyclo[2.2.1]heptan-4-yl)imidazo[1,2-a]pyridine-6-carboxamide] | IC50 [2]: 0.0018 µM
– | Cn1cccc(NC(=O)c2cn3cc(C4CC4)nc3c(OCCF)n2)c1=O [Example 637, 2-Cyclopropyl-8-(2-fluoroethoxy)-N-(1-methyl-2-oxo-1,2-dihydropyridin-3-yl)imidazo[1,2-a]pyrazine-6-carboxamide trifluoroacetate] | IC50 [2, 4]: 0.0445 µM
– | CC(C)Oc1cc2nc(C3CC3)cn2cc1C(=O)Nc1cccc(C#N)n1 [Example 638, N-(6-cyanopyridin-2-yl)-2-cyclopropyl-7-isopropoxyimidazo[1,2-a]pyridine-6-carboxamide] | IC50 [2]: 0.0045 µM
– | CC12CC(c3cn4cc(C(=O)Nc5ccn(C(F)F)n5)c(OCC5CC5)nc4n3)(CO1)C2 [Example 639, 7-(Cyclopropylmethoxy)-N-(1-(difluoromethyl)-1H-pyrazol-3-yl)-2-(1-methyl-2-oxabicyclo[2.1.1]hexan-4-yl)imidazo[1,2-a]pyrimidine-6-carboxamide] | IC50 [2]: 0.0181 µM
– | CC(C)Oc1nc2nc(C34COC(C)(C3)C4)cn2cc1C(=O)Nc1cccc(-c2cnoc2)n1 [Example 640, 7-Isopropoxy-N-(6-(isoxazol-4-yl)pyridin-2-yl)-2-(1-methyl-2-oxabicyclo[2.1.1]hexan-4-yl)imidazo[1,2-a]pyrimidine-6-carboxamide] | IC50 [2]: 0.0007 µM
– | CC(C)Oc1cc2nc(C34COC(C)(C3)C4)cn2cc1C(=O)Nc1cc(F)n(C)n1 [Example 641, N-(5-fluoro-1-methyl-1H-pyrazol-3-yl)-7-isopropoxy-2-(1-methyl-2-oxabicyclo[2.1.1]hexan-4-yl)imidazo[1,2-a]pyridine-6-carboxamide trifluoroacetate] | IC50 [2, 4]: 0.0062 µM
– | CC12CCC(c3cn4cc(C(=O)Nc5cnc6cccnn56)c(OC5CCC5)cc4n3)(CO1)C2 (centres unmarked) [Example 649, 7-cyclobutoxy-N-(imidazo[1,2-b]pyridazin-3-yl)-2-(1-methyl-2-oxabicyclo[2.2.1]heptan-4-yl)imidazo[1,2-a]pyridine-6-carboxamide] | IC50 [2]: 0.0002 µM
– | CC12CC(c3cn4cc(C(=O)Nc5cnc6cccnn56)c(OC5CCCC5)nc4n3)(CO1)C2 [Example 650, 7-(cyclopentyloxy)-N-(imidazo[1,2-b]pyridazin-3-yl)-2-(1-methyl-2-oxabicyclo[2.1.1]hexan-4-yl)imidazo[1,2-a]pyrimidine-6-carboxamide] | IC50 [2]: 0.0001 µM
– | CC12CC(c3cn4cc(C(=O)Nc5cccn(C6CC6)c5=O)c(OC5CCC5)nc4n3)(CO1)C2 [Example 651, 7-Cyclobutoxy-N-(1-cyclopropyl-2-oxo-1,2-dihydropyridin-3-yl)-2-(1-methyl-2-oxabicyclo[2.1.1]hexan-4-yl)imidazo[1,2-a]pyrimidine-6-carboxamide] | IC50 [2, 4]: 0.0005 µM
– | CC(C)Oc1nc2nc(C34CCC(C)(CC3)OC4)cn2cc1C(=O)Nc1cccn(C)c1=O [Example 654, 7-isopropoxy-N-(1-methyl-2-oxo-1,2-dihydropyridin-3-yl)-2-(1-methyl-2-oxabicyclo[2.2.2]octan-4-yl)imidazo[1,2-a]pyrimidine-6-carboxamide] | IC50 [2, 4]: 0.0005 µM
